The source of these data is article PMC10471729, “Luvadaxistat: A Novel Potent and Selective D-Amino Acid Oxidase Inhibitor Improves Cognitive and Social Deficits in Rodent Models for Schizophrenia” (Neurochemical Research, 2023).

This assay concerns the target T1, D-amino acid oxidase (DAAO) (Mus musculus, UniProt P18894).
T1 construct: gene Dao
Put plainly: cell-based.

SMILES strings stand for the structures. pIC50: −log10 of the molar value.

T1 sequence (P18894 whole entry): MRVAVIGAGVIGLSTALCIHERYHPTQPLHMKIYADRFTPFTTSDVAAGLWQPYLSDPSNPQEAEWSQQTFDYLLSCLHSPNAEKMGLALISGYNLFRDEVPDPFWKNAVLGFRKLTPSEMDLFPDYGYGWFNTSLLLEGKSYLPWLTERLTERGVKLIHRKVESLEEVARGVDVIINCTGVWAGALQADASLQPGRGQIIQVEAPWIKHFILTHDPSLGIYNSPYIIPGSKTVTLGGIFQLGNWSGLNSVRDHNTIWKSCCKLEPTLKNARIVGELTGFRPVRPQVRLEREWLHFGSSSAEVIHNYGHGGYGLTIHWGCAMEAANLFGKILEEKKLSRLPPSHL

`O=c1[nH]nc(CCc2ccc(C(F)(F)F)cc2)cc1O` [luvadaxistat] showed a pIC50 of 8.29.
